# From EPA's ToxValDB 9.5 (doi:10.2903/j.efsa.2005.26r)
# Key:
# [1] = system: Aphidius rhopalosiphi; assay: LR50; higher = less toxic; conditions: acute; duration: 48 hours; mortality
# [2] = system: Apis mellifera; conditions: acute; duration: 48 hours; oral; unspecified; mortality
# [3] = system: Daphnia magna; conditions: chronic/long-term; duration: 21 days; reproduction
# [4] = system: Tagia sp.; conditions: acute; duration: 14 days; mortality
# [5] = system: Anas platyrhynchos
# [6] = system: Colinus virginianus
# [7] = system: Pimephales promelas; conditions: chronic/long-term; duration: 28 days
# [8] = system: Rattus norvegicus
# [9] = system: Oncorhynchus mykiss; conditions: acute; duration: 96 hours; mortality
smiles,measurement,setting,value
CNC(=O)ON=C(SC)C(=O)N(C)C [Oxamyl],LR50,[1],0.03 g/ha
same,LD50,[2],0.38 µg/piece
same,NOEC,[3],0.0268 mg/L
same,LC50,[4],112 mg/kg
same,LD50,"[5]; acute, oral, unspecified, mortality",3.16 mg/kg
same,NOEC,[5]; reproductive,50 mg/kg
same,LC50,"[5]; short-term, oral, feed, mortality",340 mg/kg
same,LC50,"[6]; acute, oral, diet, mortality",766 mg/kg
same,LD50,"[6]; acute, oral, mortality",9.5 mg/kg
same,NOEC,[6]; reproduction developmental,10 mg/kg-day
same,NOEC,[7],0.5 mg/L
same,NOAEL,"[8]; acute, oral, gavage, M/F, clinical signs",0.1 mg/kg-day
same,LD50,"[8]; acute, oral, mortality",2.5 mg/kg
same,NOEC,[8]; reproduction developmental,1.43 mg/kg-day
same,LC50,[9],3.13 mg/L
